Experimental findings from US20240382494A1, “THERAPEUTIC COMPOUNDS” (priority 2023, published 2024) are described below.

Where only a bound is given, the exact number is not on record here.

The target of one series is SARS-CoV-2 PLpro (Severe acute respiratory syndrome coronavirus 2, UniProt P0DTD1). Put plainly: FRET-based PLpro enzymatic assay. Format: biochemical. Conditions: 200 nM PLpro, 10 μM FRET substrate, 30 min preincubation at 30° C.; read-out: IC50. The protocol:
The SARS-CoV-2 PL^pro enzymatic assays were carried out as follows. The assay was assembled in 96-well plates with 100 μl of 200 nM PL^Pro protein in PL^Pro reaction buffer [50 mM Hepes (pH 7.5), 0.01% Triton X-100, and 5 mM DTT]. Then, 1 μl of testing compound at various concentrations was added to each well and incubated at 30° C. for 30 minutes. The enzymatic reaction was initiated by adding 1 μl of 1 mM FRET substrate (the final substrate concentration is 10 μM). The reaction was monitored in a Cytation 5 image reader with filters for excitation at 360/40 nm and emission at 460/40 nm at 30° C. for 1 hour. The initial velocity of the enzymatic reaction with and without testing compounds was calculated by linear regression for the first 15 minutes of the kinetic progress curve. The IC50 values were calculated by plotting the initial velocity against various concentrations of testing compounds with a dose-response function in Prism 8 software.

A short description of series [1]: Cytotoxicity assay in Vero E6 cells (neutral red uptake). Format: cell-based. Conditions: African green monkey; Vero E6 cells, 2 days at 37° C., neutral red uptake; read-out: Vero CC50. The protocol: Briefly, 80.000 cells/ml of the tested cell lines were dispensed into 96-well cell culture plates at 100 μl per well Twenty-four hours later, the growth medium was removed and washed with 150 μl of PBS buffer. Two hundred microliters of fresh serum-free medium containing serial diluted compounds was added to each well. After incubating for 2 days at 37° C., the medium was removed and replaced with 100 μl of DMEM medium containing neutral red (40 μg/ml) and incubated for 2 to 4 hours at 37° C. The amount of neutral red taken up was determined by measuring the absorbance at 540 nm using a Multiskan FC Microplate Photometer (Thermo Fisher Scientific) The CC50 values were calculated from best-fit dose-response curves with variable slope in Prism 8.

Turning to `Cc1ccc(OCCN(C)C)cc1C(=O)N[C@H](C)c1cc(-c2cccs2)nc2ccccc12` [Example 1, (R)-5-(2-(dimethylamino)ethoxy)-2-methyl-N-(1-(2-(thiophen-2-yl)quinolin-4-yl)ethyl)benzamide], at SARS-CoV-2 PLpro, the IC50 is less than 500 nM. Moreover, in series [1], the CC50 at 2 days is 12.2 ± 0.85 µM. As for `Cc1ccc(OCCN(C)C)cc1C(=O)N[C@@H](C)c1cc(-c2cccs2)nc2ccccc12` [Example 2, (S)-5-(2-(dimethylamino)ethoxy)-2-methyl-N-(1-(2-(thiophen-2-yl)quinolin-4-yl)ethyl)benzamide], the IC50 at SARS-CoV-2 PLpro was 1000 to 5000 nM. For the same compound, the CC50 at 2 days in series [1] was found to be 11.4 ± 0.79 µM. On the same counts, the results for `Cc1ccc(OCCN(C)C)cc1C(=O)N[C@H](C)c1cc(-c2cnn(C(F)F)c2)nc2ccccc12` [Example 3, (R)—N-(1-(2-(1-(difluoromethyl)-1H-pyrazol-4-yl)quinolin-4-yl)ethyl)-5-(2-(dimethylamino)ethoxy)-2-methylbenzamide] are less than 500 nM and 15.2 ± 2.54 µM.

For the compound `Cc1ccc(OCCN(C)C)cc1C(=O)N[C@H](C)c1cc(-c2ccco2)nc2ccccc12` [Example 4, (R)5-(2-(dimethylamino)ethoxy)-N-(1-(2-(furan-2-yl)quinolin-4-yl)ethyl)-2-methylbenzamide], on SARS-CoV-2 PLpro, the IC50 was less than 500 nM. Further, the CC50 at 2 days in series [1] turned out to be 57.3 ± 20.4 µM. `Cc1ccc(OCCN(C)C)cc1C(=O)N[C@H](C)c1cc(-c2cncs2)nc2ccccc12` [Example 5, (R)-5-(2-(dimethylamino)ethoxy)-2-methyl-N-(1-(2-(thiazol-5-yl)quinolin-4-yl)ethyl)benzamide]: the IC50 at SARS-CoV-2 PLpro was less than 500 nM. For the same compound, the CC50 at 2 days in series [1] is 44.7 ± 11.7 µM. In the case of `COCCn1cc(-c2cc([C@@H](C)NC(=O)c3cc(OCCN(C)C)ccc3C)c3ccccc3n2)cn1` [Example 6, (R)-5-(2-(dimethylamino)ethoxy)-N-(1-(2-(1-(2-methoxyethyl)-1H-pyrazol-4-yl)quinolin-4-yl)ethyl)-2-methylbenzamide], the IC50 on SARS-CoV-2 PLpro is less than 500 nM. In addition, the CC50 at 2 days in series [1] was 200 ± 86.4 µM. For the compound `Cc1ccc(OCCN(C)C)cc1C(=O)N[C@H](C)c1cc(-c2cnn(C)c2)nc2ccccc12` [Example 7, (R)-5-(2-(dimethylamino)ethoxy)-2-methyl-N-(1-(2-(1-methyl-1H-pyrazol-4-yl)quinolin-4-yl)ethyl)benzamide], the IC50 on SARS-CoV-2 PLpro is less than 500 nM. Regarding `Cc1ccc(OCCN(C)C)cc1C(=O)N[C@H](C)c1cc(-c2cnn(C3CC3)c2)nc2ccccc12` [Example 8, (R)—N-(1-(2-(1-cyclopropyl-1H-pyrazol-4-yl)quinolin-4-yl)ethyl)-5-(2-(dimethylamino)ethoxy)-2-methylbenzamide], the IC50 at SARS-CoV-2 PLpro is less than 500 nM. In addition, the CC50 at 2 days in series [1] was determined as 63.1 ± 8.7 µM.

As for `Cc1ccc(OCCN(C)C)cc1C(=O)N[C@@H](C)c1cc(-c2ccco2)nc2ccccc12` [Example 17, (S)-5-(2-(dimethylamino)ethoxy)-N-(1-(2-(furan-2-yl)quinolin-4-yl)ethyl)-2-methylbenzamide], the IC50 at SARS-CoV-2 PLpro was less than 500 nM. Same read-out and setting: under `Cc1ccc(OCCN(C)C)cc1C(=O)N[C@H](C)c1cc(-c2cn[nH]c2)nc2ccccc12` [Example 23, (R)—N-(1-(2-(1H-pyrazol-4-yl)quinolin-4-yl)ethyl)-5-(2-(dimethylamino)ethoxy)-2-methylbenzamide] stands less than 500 nM.

In the case of `Cc1ccc(OCCN(C)C)cc1C(=O)N[C@H](C)c1cc(-n2ccnc2)nc2ccccc12` [Example 46, (R)—N-(1-(2-(1H-imidazol-1-yl)quinolin-4-yl)ethyl)-5-(2-(dimethylamino)ethoxy)-2-methylbenzamide], the IC50 at SARS-CoV-2 PLpro was less than 500 nM. In the case of `Cc1ccc(OCCN(C)C)cc1C(=O)N[C@H](C)c1cc(-c2cnc3[nH]ncc3c2)nc2ccccc12` [Example 49, (R)—N-(1-(2-(1H-pyrazolo[3,4-b]pyridin-5-yl)quinolin-4-yl)-ethyl)-5-(2-(dimethylamino)-ethoxy)-2-methylbenzamide], the CC50 at 2 days in series [1] was greater than 250 µM. In the case of `COc1ncc(-c2cc([C@@H](C)NC(=O)c3cc(OCCN(C)C)ccc3C)c3ccccc3n2)cn1` [Example 62, (R)-5-(2-(dimethylamino)ethoxy)-N-(1-(2-(2-methoxy-pyrimidin-5-yl)quinolin-4-yl)ethyl)-2-methylbenzamide], on SARS-CoV-2 PLpro, the IC50 was greater than 5000 nM. Turning to `Cc1ccc(OCCN(C)C)cc1C(=O)N[C@H](C)c1cc(-c2ccc(CN3CCOCC3)o2)nc2ccccc12` [Example 72, (R)-5-(2-(dimethylamino)ethoxy)-2-methyl-N-(1-(2-(5-(morpholinomethyl)furan-2-yl)quinolin-4-yl)ethyl)benzamide], the IC50 at SARS-CoV-2 PLpro is less than 500 nM. Consider `Cc1ccc(OC[C@@H]2CCN2C)cc1C(=O)N[C@H](C)c1cc(-c2cnn(C)c2)nc2ccccc12` [Example 75, 2-methyl-N—((R)-1-(2-(1-methyl-1H-pyrazol-4-yl)quinolin-4-yl)ethyl)-5-(((S)-1-methylazetidin-2-yl)methoxy)benzamide], for which the IC50 at SARS-CoV-2 PLpro was less than 500 nM. The same measure, in the same setting: under `Cc1ccc(N2CCN(C)[C@H](C)C2)cc1C(=O)N[C@H](C)c1cc(-c2cnn(C)c2)nc2ccccc12` [Example 79, 5-((R)-3,4-dimethylpiperazin-1-yl)-2-methyl-N—((R)-1-(2-(1-methyl-1H-pyrazol-4-yl)quinolin-4-yl)ethyl)benzamide] stands less than 500 nM. Consider `Cc1ccc(N2C[C@H]3CN(C)C[C@H]3C2)cc1C(=O)N[C@H](C)c1cc(-c2cnn(C)c2)nc2ccccc12` [Example 81, 2-methyl-N—((R)-1-(2-(1-methyl-1H-pyrazol-4-yl)quinolin-4-yl)ethyl)-5-((3aR,6aS)-5-methylhexahydropyrrolo[3,4-c]pyrrol-2(1H)-yl)benzamide], for which the IC50 at SARS-CoV-2 PLpro was less than 500 nM. Consider `Cc1ccc(OC[C@H]2CCCN2C)cc1C(=O)N[C@H](C)c1cc(-c2cnn(C)c2)nc2ccccc12` [Example 83, 2-methyl-N—((R)-1-(2-(1-methyl-1H-pyrazol-4-yl)quinolin-4-yl)ethyl)-5-(((R)-1-methylpyrrolidin-2-yl)methoxy)benzamide], for which the IC50 on SARS-CoV-2 PLpro was less than 500 nM. Same read-out and setting: in the case of `CCn1ccc(-c2cc([C@@H](C)NC(=O)c3cc(OC[C@@H]4CCN4C)ccc3C)c3ccccc3n2)n1` [Example 105, N—((R)-1-(2-(1-ethyl-1H-pyrazol-3-yl)quinolin-4-yl)ethyl)-2-methyl-5-(((S)-1-methyl-azetidin-2-yl)methoxy)benzamide] it was less than 500 nM. With `CCn1ccc(-c2cc([C@@H](C)NC(=O)c3cc(OC[C@@H]4CCCN4C)ccc3C)c3ccccc3n2)n1` [Example 109, N—((R)-1-(2-(1-ethyl-1H-pyrazol-3-yl)quinolin-4-yl)ethyl)-2-methyl-5-(((S)-1-methylpyrrolidin-2-yl)methoxy)benzamide], the CC50 at 2 days in series [1] was 27 ± 1.66 µM. For the compound `Cc1ccc(N2CCN(C)CC2)cc1C(=O)NC1(c2cc(-c3cnn(C)c3)nc3ccccc23)CC1` [Example 111, 2-methyl-N-(1-(2-(1-methyl-1H-pyrazol-4-yl)quinolin-4-yl)cyclopropyl)-5-(4-methylpiperazin-1-yl)benzamide], the CC50 at 2 days in series [1] is greater than 150 µM.

As for `Cc1ccc(N2C[C@H]3CN(C)C[C@H]3C2)cc1C(=O)NC1(c2cc(-c3cnn(C)c3)nc3ccccc23)CC1` [Example 113, 2-methyl-N-(1-(2-(1-methyl-1H-pyrazol-4-yl)quinolin-4-yl)cyclopropyl)-5-((3aR,6aS)-5-methylhexahydropyrrolo[3,4-c]pyrrol-2(1H)-yl)benzamide], the CC50 at 2 days in series [1] is 56.1 µM.

The term IC50 denotes the concentration needed to halve the response being measured. A word on the CC50: it is the concentration that lowers cell viability or growth by half.
